According to ChEMBL document CHEMBL1201862, “PubChem BioAssay data set” (2004):
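Five concentrations, 48 hours, 96-well plates. The concentration for 50% growth inhibition is given as GI50.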 Calls of active or inactive are those of the source. Cut-off read from the data, not from the text of the source: active = GI50 up to about 1.1 µM and inactive = higher.

Columns and labels:
Experiment in all cases: DTP human tumour cell line panel, 48 h
SF-295 = system: SF-295
OVCAR-8 = system: OVCAR-8
OVCAR-3 = system: OVCAR-3
A549 = system: A549
SF-268 = system: SF-268
NCI-H522 = system: NCI-H522
NCI-H23 = system: NCI-H23
HCC 2998 = system: HCC 2998
RPMI-8226 = system: RPMI-8226
SK-MEL-5 = system: SK-MEL-5
U-251 = system: U-251
UACC-62 = system: UACC-62
CCRF-CEM = system: CCRF-CEM
HT-29 = system: HT-29
NCI-H226 = system: NCI-H226
COLO 205 = system: COLO 205

SMILES | GI50 (SF-295) | GI50 (OVCAR-8) | GI50 (OVCAR-3) | GI50 (A549) | GI50 (SF-268) | GI50 (NCI-H522) | GI50 (NCI-H23) | GI50 (HCC 2998) | GI50 (RPMI-8226) | GI50 (SK-MEL-5) | GI50 (U-251) | GI50 (UACC-62) | GI50 (CCRF-CEM) | GI50 (HT-29) | GI50 (NCI-H226) | GI50 (COLO 205)
CC1=C(N(C)C)C(=O)c2nc3n(c2C1=O)CCC3OC(N)=O (stereo unspecified) | 15.2 µM (inactive) | 16.7 µM (inactive) | 16.8 µM (inactive) | 18.8 µM (inactive) | 20.1 µM (inactive) | 15.2 µM (inactive) | 13.8 µM (inactive) | 18.2 µM (inactive) | 16.9 µM (inactive) | 11.5 µM (inactive) | 23.2 µM (inactive) | 5.58 µM (inactive) | 15.1 µM (inactive) | 19.7 µM (inactive) | 19.4 µM (inactive) | 18 µM (inactive)
CC(N)C(=O)c1ccc(O)cc1 (stereo unspecified) | > 100 µM (inactive) | > 100 µM (inactive) | > 100 µM (inactive) | > 100 µM (inactive) | > 100 µM (inactive) | > 100 µM (inactive) | > 100 µM (inactive) | > 100 µM (inactive) | > 100 µM (inactive) | > 100 µM (inactive) | > 100 µM (inactive) | > 100 µM (inactive) | > 100 µM (inactive) | > 100 µM (inactive) | > 100 µM (inactive) | > 100 µM (inactive)
O=C(C#Cc1ccccc1)Nc1ccccc1CC(c1c[nH]c2ccccc12)c1c[nH]c2ccccc12 | 9.46 µM (inactive) | 8.32 µM (inactive) | 9.44 µM (inactive) | 23.2 µM (inactive) | 25.4 µM (inactive) | 11.6 µM (inactive) | 15.4 µM (inactive) | 23.2 µM (inactive) | 3.52 µM (inactive) | 17.9 µM (inactive) |  | 7.5 µM (inactive) | 3.3 µM (inactive) | 10.3 µM (inactive) | 16.6 µM (inactive) | 18.2 µM (inactive)
Cc1ccc2nc(NC(=O)C(=O)CC(=O)c3cccc4ccccc34)sc2c1 | 19.9 µM (inactive) | 23.4 µM (inactive) | 19.9 µM (inactive) | 33.6 µM (inactive) | 32.6 µM (inactive) |  | 50.8 µM (inactive) | 39.2 µM (inactive) | 91.8 µM (inactive) | 23.1 µM (inactive) | 22 µM (inactive) | 25.6 µM (inactive) | 30.8 µM (inactive) | 36 µM (inactive) | 19.8 µM (inactive) | 60.4 µM (inactive)
CC1CN1P1(N2CC2C)=NP(N2CC2C)(N2CC2C)=NP(N2CC2C)(N2CC2C)=N1 (stereo unspecified) | > 50 µM (inactive) | > 50 µM (inactive) | > 50 µM (inactive) | > 50 µM (inactive) | > 50 µM (inactive) | > 50 µM (inactive) | > 50 µM (inactive) | > 50 µM (inactive) | > 50 µM (inactive) | > 50 µM (inactive) | > 50 µM (inactive) |  | > 50 µM (inactive) | > 50 µM (inactive) | > 50 µM (inactive) | > 50 µM (inactive)
[O-][S+]1c2ccccc2N=C(c2ccc3ccccc3c2)CC1c1ccccc1 (stereo unspecified) | 19.9 µM (inactive) | 16.4 µM (inactive) |  | 21.3 µM (inactive) | 18.2 µM (inactive) | 18.2 µM (inactive) | 17.9 µM (inactive) | 21.9 µM (inactive) | 29.6 µM (inactive) | 27.7 µM (inactive) | 18.6 µM (inactive) | 36.6 µM (inactive) | 31.8 µM (inactive) | 17.4 µM (inactive) | 23.3 µM (inactive) | 19.1 µM (inactive)
CCOC(=O)c1c[nH]c2c(ccc3ncccc32)c1=O |  | > 100 µM (inactive) | > 100 µM (inactive) | > 100 µM (inactive) | > 100 µM (inactive) | > 100 µM (inactive) | > 100 µM (inactive) | > 100 µM (inactive) |  | > 100 µM (inactive) | > 100 µM (inactive) | > 100 µM (inactive) | > 100 µM (inactive) | > 100 µM (inactive) |  | > 100 µM (inactive)
COc1ccc(OC)c(NC(=O)C2=C(C)NC(C)=C(C(=O)Nc3cc(OC)ccc3OC)C2c2ccco2)c1 |  | > 100 µM (inactive) | > 100 µM (inactive) | > 100 µM (inactive) | > 100 µM (inactive) | > 100 µM (inactive) | > 100 µM (inactive) |  | 63 µM (inactive) | 51.3 µM (inactive) | > 100 µM (inactive) | > 100 µM (inactive) | > 100 µM (inactive) | > 100 µM (inactive) | > 100 µM (inactive) | > 100 µM (inactive)
O=C1CCC(=O)C12CCc1cccc(O)c12 | > 100 µM (inactive) | > 100 µM (inactive) | > 100 µM (inactive) | > 100 µM (inactive) | > 100 µM (inactive) |  | > 100 µM (inactive) | > 100 µM (inactive) | > 100 µM (inactive) |  | > 100 µM (inactive) | > 100 µM (inactive) |  | > 100 µM (inactive) |  | > 100 µM (inactive)
CN(C)c1nc(N(C)C)nc(N(C)CN(C)c2nc(N(C)C)nc(N(C)C)n2)n1 | > 100 µM (inactive) | > 100 µM (inactive) | > 100 µM (inactive) | > 100 µM (inactive) | > 100 µM (inactive) | 76.9 µM (inactive) | > 100 µM (inactive) | > 100 µM (inactive) | > 100 µM (inactive) | > 100 µM (inactive) | > 100 µM (inactive) | > 100 µM (inactive) | > 100 µM (inactive) | > 100 µM (inactive) |  | > 100 µM (inactive)
COc1cc(C2c3cc4c(cc3[C@@H](NCCN3CCCCC3)C3COC(=O)[C@H]23)OCO4)cc(OC)c1O (stereo partly specified) | 0.107 µM (active) | 0.718 µM (active) | 0.78 µM (active) | 0.0656 µM (active) | 0.346 µM (active) |  | 0.206 µM (active) |  | 0.277 µM (active) | 0.394 µM (active) | 0.109 µM (active) | 0.272 µM (active) | 0.0378 µM (active) | 1.19 µM (inactive) | 0.0387 µM (active) | 1.01 µM (active)
Cc1c(O)c(=O)ccn1CCO | > 100 µM (inactive) | > 100 µM (inactive) | > 100 µM (inactive) | > 100 µM (inactive) | > 100 µM (inactive) | > 100 µM (inactive) |  |  | > 100 µM (inactive) | > 100 µM (inactive) | > 100 µM (inactive) | > 100 µM (inactive) | > 100 µM (inactive) | > 100 µM (inactive) | > 100 µM (inactive) | > 100 µM (inactive)
C/C(=N\N=C(\N)S)c1ccc(Oc2ccccc2)cc1 | 8.07 µM (inactive) | 11.7 µM (inactive) | 10.1 µM (inactive) | 18.7 µM (inactive) |  |  | 11.8 µM (inactive) | 7.93 µM (inactive) | 1.78 µM (inactive) | 5.12 µM (inactive) | 15.4 µM (inactive) | 10.6 µM (inactive) | 5.04 µM (inactive) |  |  | 8.36 µM (inactive)
CCN(CC)c1ccc(C2N3CCCCC3[C@@H]3c4[nH]c5ccccc5c4CCN23)cc1 (stereo partly specified) | 53.7 µM (inactive) | 35.3 µM (inactive) | 23.9 µM (inactive) | 49.1 µM (inactive) | 22.1 µM (inactive) |  | 34.9 µM (inactive) |  | 12.8 µM (inactive) | 17.3 µM (inactive) | 29.6 µM (inactive) | 19.5 µM (inactive) | 16.3 µM (inactive) | 16.1 µM (inactive) |  | 27.4 µM (inactive)
Cc1ccc(O)c(/N=N/c2ccc(S(=O)(=O)O)cc2)n1 | > 100 µM (inactive) | > 100 µM (inactive) |  | > 100 µM (inactive) | > 100 µM (inactive) | > 100 µM (inactive) | > 100 µM (inactive) |  | > 100 µM (inactive) | > 100 µM (inactive) | > 100 µM (inactive) | > 100 µM (inactive) | > 100 µM (inactive) |  |  | > 100 µM (inactive)
O[C@]12CCCC[C@H]1CCC2 | > 100 µM (inactive) | > 100 µM (inactive) | > 100 µM (inactive) | > 100 µM (inactive) | > 100 µM (inactive) | > 100 µM (inactive) | > 100 µM (inactive) | > 100 µM (inactive) | > 100 µM (inactive) | > 100 µM (inactive) | > 100 µM (inactive) | > 100 µM (inactive) | > 100 µM (inactive) | > 100 µM (inactive) |  | > 100 µM (inactive)
Cc1c(O)c(=O)ccn1CCN |  | > 100 µM (inactive) |  | > 100 µM (inactive) | > 100 µM (inactive) | > 100 µM (inactive) | > 100 µM (inactive) | > 100 µM (inactive) | > 100 µM (inactive) |  | > 100 µM (inactive) | > 100 µM (inactive) | > 100 µM (inactive) | > 100 µM (inactive) | > 100 µM (inactive) | > 100 µM (inactive)
O=C1c2cccc3cc([N+](=O)[O-])cc(c23)C(=O)N1CCCN1CCN(CCCN2C(=O)c3cccc4cc([N+](=O)[O-])cc(c34)C2=O)CC1 | 0.0386 µM (active) | < 0.01 µM (active) | 1.09 µM (active) | 0.0381 µM (active) |  |  | 0.859 µM (active) | 0.0625 µM (active) | 0.0887 µM (active) | 0.0853 µM (active) | 0.0248 µM (active) | 0.0579 µM (active) | 0.0803 µM (active) | < 0.01 µM (active) | 0.0702 µM (active) | 0.108 µM (active)
CC12OC(=O)C(C#N)C1(C)C1C(=O)CCCC12 (stereo unspecified) | > 100 µM (inactive) | > 100 µM (inactive) | > 100 µM (inactive) | > 100 µM (inactive) | > 100 µM (inactive) |  | > 100 µM (inactive) |  | > 100 µM (inactive) | > 100 µM (inactive) | > 100 µM (inactive) | > 100 µM (inactive) | > 100 µM (inactive) |  | > 100 µM (inactive) | > 100 µM (inactive)
